# Measurements as given in patent publication US20260295053A1, “COMPOUNDS FOR DEGRADATION AND INHIBITION OF KRAS (G12D) PROTEIN” (Shenzhen Ionova Life Science Co., Ltd., priority 2023, published 2026).
# Columns and labels:
# AsPC-1 cells = assay: AsPC-1 cell proliferation assay (CellTiter Glo); assay type: cell-based; details: 6 days
# In short: (§1)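 AsPC-1 cells were seeded at 22,000/well for degradation and 3,500/well for proliferation. Compounds in 1:3 dilutions ([…] to 1.5 nM final) ran 24 h for degradation, read by in-cell immunofluorescence of KRAS G12D normalised to β-actin, and 6 days for proliferation (CellTiter Glo luminescence). DC50/IC50 came from dose-response fits.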
# KRAS (G12D) = target: T1, KRAS (G12D) (Homo sapiens, UniProt P01116, G12D); assay: KRAS (G12D) cellular degradation assay in AsPC-1 cells; assay type: cell-based; details: 24 hours, antibody fluorescence (Odyssey CLX), DC50 half-maximal degradation concentration
# T1 construct: in-cell western with KRAS G12D antibody after 24 h
# In short: as §1
# T1 sequence (P01116 1-188 isoform P01116-2 G12D): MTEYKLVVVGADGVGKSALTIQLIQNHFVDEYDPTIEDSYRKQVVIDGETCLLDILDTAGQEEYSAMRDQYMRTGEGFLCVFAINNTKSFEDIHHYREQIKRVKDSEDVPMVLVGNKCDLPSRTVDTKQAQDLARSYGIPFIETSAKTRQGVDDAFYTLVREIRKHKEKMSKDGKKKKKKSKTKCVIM
Structure (SMILES),"IC50 (AsPC-1 cells; Homo sapiens, ASPC1, 144 h)",DC50 (KRAS (G12D)),IC50 (AsPC-1 cells)
"CO[C@@H](C)COc1nc(N2C[C@@H]3C[C@H]2CN3)c2cc(C3CC3)c(-c3c(C)c(F)cc4[nH]ncc34)c(OCc3ccc(-c4cn([C@H](C(=O)N5C[C@H](O)C[C@H]5C(=O)N[C@H](C#Cc5ccc6ncsc6c5)CO)C(C)C)nn4)cc3)c2n1 [Example 54, (2S,4R)-1-((2S)-2-(4-(4-(((4-((1S,4S)-2,5-diazabicyclo[2.2.1]heptan-2-yl)-6-cyclopropyl-7-(6-fluoro-5-methyl-1H-indazol-4-yl)-2-((S)-2-methoxypropoxy)quinazolin-8-yl)oxy)methyl)phenyl)-1H-1,2,3-triazol-1-yl)-3-methylbutanoyl)-N—((R)-4-(benzo[d]thiazol-6-yl)-1-hydroxybut-3-yn-2-yl)-4-hydroxypyrrolidine-2-carboxamide]",< 10 nM,10 to 100 nM,–
"CO[C@H]1C[C@H](Oc2nc(N(C)[C@@H]3CCNC3)c3cc(C4CC4)c(-c4c(C)c(F)cc5[nH]ncc45)c(OCc4ccc(-c5cn([C@H](C(=O)N6C[C@H](O)C[C@H]6C(=O)N[C@H](c6ccc(-c7scnc7C)cc6)[C@H](C)O)C(C)C)nn5)cc4)c3n2)C1 [Example 202, (2S,4R)-1-((2S)-2-(4-(4-(((6-cyclopropyl-7-(6-fluoro-5-methyl-1H-indazol-4-yl)-2-((1r,3R)-3-methoxycyclobutoxy)-4-(methyl((R)-pyrrolidin-3-yl)amino)quinazolin-8-yl)oxy)methyl)phenyl)-1H-1,2,3-triazol-1-yl)-3-methylbutanoyl)-4-hydroxy-N-((1R,2S)-2-hydroxy-1-(4-(4-methylthiazol-5-yl)phenyl)propyl)pyrrolidine-2-carboxamide]",< 10 nM,< 10 nM,–
"CCn1nccc1-c1ccc([C@H](CO)NC(=O)[C@@H]2C[C@@H](O)CN2C(=O)[C@H](C(C)C)n2cc(-c3ccc(COc4c(-c5c(C)c(F)cc6[nH]ncc56)c(C5CC5)cc5c(N6C[C@@H]7C[C@H]6CN7)nc(OC6CCN(S(C)(=O)=O)CC6)nc45)cc3)nn2)cc1 [Example 38, (2S,4R)-1-((2S)-2-(4-(4-(((4-((1S,4S)-2,5-diazabicyclo[2.2.1]heptan-2-yl)-6-cyclopropyl-7-(6-fluoro-5-methyl-1H-indazol-4-yl)-2-((1-(methylsulfonyl)piperidin-4-yl)oxy)quinazolin-8-yl)oxy)methyl)phenyl)-1H-1,2,3-triazol-1-yl)-3-methylbutanoyl)-N—((R)-1-(4-(1-ethyl-1H-pyrazol-5-yl)phenyl)-2-hydroxyethyl)-4-hydroxypyrrolidine-2-carboxamide]",< 10 nM,< 10 nM,–
"CCn1nccc1-c1ccc([C@H](CO)NC(=O)[C@@H]2C[C@@H](O)CN2C(=O)[C@H](C(C)C)n2cc(-c3ccc(COc4c(-c5c(C)c(F)cc6[nH]ncc56)c(C5CC5)cc5c(N6C[C@@H]7C[C@H]6CN7)nc(O[C@H]6C[C@H](OC)C6)nc45)cc3)nn2)c2c1CC2 [Example 160, (2S,4R)-1-((2S)-2-(4-(4-(((4-((1S,4S)-2,5-diazabicyclo[2.2.1]heptan-2-yl)-6-cyclopropyl-7-(6-fluoro-5-methyl-1H-indazol-4-yl)-2-((1r,3S)-3-methoxycyclobutoxy)quinazolin-8-yl)oxy)methyl)phenyl)-1H-1,2,3-triazol-1-yl)-3-methylbutanoyl)-N—((R)-1-(5-(1-ethyl-1H-pyrazol-5-yl)bicyclo[4.2.0]octa-1(6),2,4-trien-2-yl)-2-hydroxyethyl)-4-hydroxypyrrolidine-2-carboxamide]",< 10 nM,< 10 nM,–
"CCn1nccc1-c1ccc([C@H](CO)NC(=O)[C@@H]2C[C@@H](O)CN2C(=O)[C@H](C(C)C)n2cc(-c3ccc(COc4c(-c5c(C)c(F)cc6[nH]ncc56)c(C5CC5)cc5c(N6C[C@@H]7C[C@H]6CN7)nc(OC[C@H](C)OC)nc45)cc3OC)nn2)cc1 [Example 45, (2S,4R)-1-((2S)-2-(4-(4-(((4-((1S,4S)-2,5-diazabicyclo[2.2.1]heptan-2-yl)-6-cyclopropyl-7-(6-fluoro-5-methyl-1H-indazol-4-yl)-2-((S)-2-methoxypropoxy)quinazolin-8-yl)oxy)methyl)-2-methoxyphenyl)-1H-1,2,3-triazol-1-yl)-3-methylbutanoyl)-N—((R)-1-(4-(1-ethyl-1H-pyrazol-5-yl)phenyl)-2-hydroxyethyl)-4-hydroxypyrrolidine-2-carboxamide]",10 to 100 nM,10 to 100 nM,–
"CCn1nccc1-c1ccc([C@H](CO)NC(=O)[C@@H]2C[C@@H](O)CN2C(=O)[C@H](C(C)C)n2cc(-c3ccc(COc4c(-c5c(C)c(F)cc6[nH]ncc56)c(C5CC5)cc5c(N6CC7CCC(C6)N7)nc(OC[C@H](C)OC)nc45)cc3)nn2)cc1 (single isomer, unassigned) [Example 9]",–,10 to 100 nM,> 1000 nM

# Other lines, results leading:
"IC50 (AsPC-1 cells; Homo sapiens, ASPC1, 144 h)",DC50 (KRAS (G12D)),IC50 (AsPC-1 cells),Structure (SMILES)
< 10 nM,< 10 nM,–,"CCn1nccc1-c1ccc([C@H](CO)NC(=O)[C@@H]2C[C@@H](O)CN2C(=O)[C@H](C(C)C)n2cc(-c3ccc(COc4c(-c5c(C)c(F)cc6[nH]ncc56)c(C5CC5)cc5c(N6C[C@@H]7C[C@H]6CN7)nc(O[C@H]6CO[C@H]7OCC[C@H]76)nc45)cc3)nn2)cc1 [Example 56, (2S,4R)-1-((2S)-2-(4-(4-(((4-((1S,4S)-2,5-diazabicyclo[2.2.1]heptan-2-yl)-6-cyclopropyl-7-(6-fluoro-5-methyl-1H-indazol-4-yl)-2-(((3R,3aS,6aR)-hexahydrofuro[2,3-b]furan-3-yl)oxy)quinazolin-8-yl)oxy)methyl)phenyl)-1H-1,2,3-triazol-1-yl)-3-methylbutanoyl)-N—((R)-1-(4-(1-ethyl-1H-pyrazol-5-yl)phenyl)-2-hydroxyethyl)-4-hydroxypyrrolidine-2-carboxamide]"
< 10 nM,< 10 nM,–,"CO[C@@H](C)COc1nc(N2C[C@@H]3C[C@H]2CN3)c2cc(C3CC3)c(-c3c(C)c(F)cc4[nH]ncc34)c(OCc3ccc(-c4cn([C@H](C(=O)N5C[C@H](O)C[C@H]5C(=O)N[C@H](C#Cc5cccc6[nH]ncc56)CO)C(C)C)nn4)cc3)c2n1 [Example 133, (2S,4R)-1-((2S)-2-(4-(4-(((4-((1S,4S)-2,5-diazabicyclo[2.2.1]heptan-2-yl)-6-cyclopropyl-7-(6-fluoro-5-methyl-1H-indazol-4-yl)-2-((S)-2-methoxypropoxy)quinazolin-8-yl)oxy)methyl)phenyl)-1H-1,2,3-triazol-1-yl)-3-methylbutanoyl)-4-hydroxy-N—((R)-1-hydroxy-4-(1H-indazol-4-yl)but-3-yn-2-yl)pyrrolidine-2-carboxamide]"
< 10 nM,< 10 nM,–,"Cc1ncsc1-c1ccc([C@@H](NC(=O)[C@@H]2C[C@@H](O)CN2C(=O)[C@H](C(C)C)n2cc(-c3ccc(COc4c(-c5c(C)c(F)cc6[nH]ncc56)c(C5CC5)cc5c(N6C[C@@H]7C[C@H]6CN7)nc(OC6CCC7(CC6)COC7)nc45)cc3)nn2)[C@H](C)O)cc1 [Example 96, (2S,4R)-1-((2S)-2-(4-(4-(((2-((2-oxaspiro[3.5]nonan-7-yl)oxy)-4-((1S,4S)-2,5-diazabicyclo[2.2.1]heptan-2-yl)-6-cyclopropyl-7-(6-fluoro-5-methyl-1H-indazol-4-yl)quinazolin-8-yl)oxy)methyl)phenyl)-1H-1,2,3-triazol-1-yl)-3-methylbutanoyl)-4-hydroxy-N-((1R,2S)-2-hydroxy-1-(4-(4-methylthiazol-5-yl)phenyl)propyl)pyrrolidine-2-carboxamide]"
< 10 nM,< 10 nM,–,"CO[C@@H](C)COc1nc(N2C[C@@H]3C[C@H]2CN3)c2cc(C3CC3)c(-c3c(C)c(F)cc4[nH]ncc34)c(OCc3ccc(-c4cn([C@H](C(=O)N5C[C@H](O)C[C@H]5C(=O)N[C@H](c5ccc(-c6scnc6C)cc5)[C@H](C)O)C(C)C)nn4)cc3)c2n1 [Example 82, (2S,4R)-1-((2S)-2-(4-(4-(((4-((1S,4S)-2,5-diazabicyclo[2.2.1]heptan-2-yl)-6-cyclopropyl-7-(6-fluoro-5-methyl-1H-indazol-4-yl)-2-((S)-2-methoxypropoxy)quinazolin-8-yl)oxy)methyl)phenyl)-1H-1,2,3-triazol-1-yl)-3-methylbutanoyl)-4-hydroxy-N-((1R,2S)-2-hydroxy-1-(4-(4-methylthiazol-5-yl)phenyl)propyl)pyrrolidine-2-carboxamide]"
< 10 nM,< 10 nM,–,"CCn1nccc1-c1ccc([C@H](CO)NC(=O)[C@@H]2C[C@@H](O)CN2C(=O)[C@H](C(C)C)n2cc(-c3ccc(COc4c(-c5c(C)c(F)cc6[nH]ncc56)c(C5CC5)cc5c(N6C[C@@H]7C[C@H]6CN7)nc(OCC6(CC(F)F)CC6)nc45)cc3)nn2)cc1 [Example 62, (2S,4R)-1-((2S)-2-(4-(4-(((4-((1S,4S)-2,5-diazabicyclo[2.2.1]heptan-2-yl)-6-cyclopropyl-2-((1-(2,2-difluoroethyl)cyclopropyl)methoxy)-7-(6-fluoro-5-methyl-1H-indazol-4-yl)quinazolin-8-yl)oxy)methyl)phenyl)-1H-1,2,3-triazol-1-yl)-3-methylbutanoyl)-N—((R)-1-(4-(1-ethyl-1H-pyrazol-5-yl)phenyl)-2-hydroxyethyl)-4-hydroxypyrrolidine-2-carboxamide]"
< 10 nM,< 10 nM,–,"CCn1nccc1-c1ccc([C@H](CO)NC(=O)[C@@H]2C[C@@H](O)CN2C(=O)[C@H](C(C)C)n2cc(-c3ccc(COc4c(-c5c(C)c(F)cc6[nH]ncc56)c(C5CC5)cc5c(N(C)[C@H]6CCNC6)nc(OC[C@H](C)OC)nc45)cc3)nn2)c2c1CC2 [Example 169, (2S,4R)-1-((2S)-2-(4-(4-(((6-cyclopropyl-7-(6-fluoro-5-methyl-1H-indazol-4-yl)-2-((S)-2-methoxypropoxy)-4-(methyl((S)-pyrrolidin-3-yl)amino)quinazolin-8-yl)oxy)methyl)phenyl)-1H-1,2,3-triazol-1-yl)-3-methylbutanoyl)-N—((R)-1-(5-(1-ethyl-1H-pyrazol-5-yl)bicyclo[4.2.0]octa-1(6),2,4-trien-2-yl)-2-hydroxyethyl)-4-hydroxypyrrolidine-2-carboxamide]"
